From US10087199B2, “Super-resolution imaging compositions and methods using same” (Yale University, priority 2014, dated 2018)

Assays:
[1] = system: fixed cells with labeled Golgi; test: Photostability in STED microscopy of fixed cells; format: cell-based; conditions: 0.52 frames/sec for 29 min (900 images)
Procedure: To evaluate the merits of Cer-SiR for super-resolution imaging of the Golgi, HeLa cells that stably expressed GalNAcT2-GFP were labeled with Cer-TCO and SiR-Tz, and imaged by confocal and STED microscopy using a commercial Leica instrument (FIGS. 6A-6C). The confocal and STED images were compared in FIG. 6A. […] A direct comparison of the relative photostabilities of Cer-SiR and SiR-SNAP-Rab6 in fixed cells was performed using a custom STED microscope that is optimized for rapid image acquisition (FIG. 6B). Cells labeled with Cer-SiR or SiR-SNAPRab6 were continuously imaged at a rate of 0.52 frames/sec for 29 min (900 images) and the intensity of a line across the Golgi was plotted (FIG. 6B). […]
STED imaging was performed on a custom built system (Bewersdorf lab, Yale University) centered around an 80 MHz mode-locked Ti:Sapphhire laser (Chameleon Ultra II, Coherent) tuned to 755 nm as the STED depletion beam. […] Excitation for fluorescence was accomplished with a 640 nm pulsed diode laser (PicoQuant) electronically synchronized to the depletion beam with an additional computer controlled electronic delay (Colby Instruments). The STED depletion and fluorescence excitation beams were combined with a dichroic mirror and directed into a 100×1.4 NA oil immersion objective lens (UPLSAPO 100XO/PSF, Olympus) where they were focused at the sample. […]

[2] = system: HeLa cells; test: Cell viability / cell- and photo-toxicity under prolonged imaging; format: cell-based; conditions: at concentrations as high as 2 μM
Procedure: In the experiments described above, the cells were exposed to Cer-TCO/SiR-Tz for minutes, a relatively short time period. To evaluate whether this Golgi labeling strategy would result in cell- or photo-toxicity over prolonged periods (such as hours), HeLa cells were treated with varying concentrations of either Cer-TCO/SiR-Tz or BODIPY® FL C5-ceramide (BODIPY-Cer) (Marks, et al., 2008, Cell Biol. 130:819-832; Pagano, et al., 1991, J. Cell Biol. 113:1267-1279), a commercially available fluorescent dye that labels the Golgi. […]
Hela cells stably expressing GalNAcT2-GFP were cultured on 35 mm glass bottom dishes subsequently labeled with various concentrations of TCO-Cer (0, 1, 2, and 5 μM) and SiR-Tz (0, 1, and 2 μM) following the protocol described elsewhere herein. […] After equilibration for 30 min, phase contrast images were taken at an interval of 20 min and fluorescence images at an interval of 10 min over 400-750 min. […] The number of physically intact cells was counted at each time point. For each condition at least 110 cells were counted/observed in the initial images (n0 (0 μM TCO-Cer, 0 μM SiR-Tz)=123 cells, n0 (2 μM TCO-Cer, 2 μM SiR-Tz)=113 cells, n0 (1 μM TCO-Cer, 1 μM SiR-Tz)=130 cells, n0 (5 μM TCO-Cer, 1 μM SiR-Tz)=120 cells, n0 (5 μM BODIPY-Cer)=123 cells).

CCCCCCCCCCCCC/C=C/[C@@H](O)[C@H](CO)NC(=O)CCCCCNC(=O)OC1CCCC2=C(c3ccc(CNC(=O)c4ccc(C(=O)[O-])c(C5=C6C=CC(=[N+](C)C)C=C6[Si](C)(C)c6cc(N(C)C)ccc65)c4)cc3)NN=CC2CC1 (stereo partly drawn) [Cer-SiR, 4-((4-(7-(((6-(((2S,3R,E)-1,3-dihydroxyoctadec-4-en-2-yl)amino)-6-oxohexyl)carbamoyl)oxy)-2,4a,5,6,7,8,9,10-octahydrocycloocta[d]pyridazin-1-yl)benzyl)carbamoyl)-2-(7-(dimethylamino)-3-(dimethyliminio)-5,5-dimethyl-3,5-dihydrodibenzo[b,e]silin-10-yl)benzoate]
Stability of STED images under continuous imaging [1]: stable throughout all 900 images | Toxicity [2]: non-toxic
